Key:
σ1 receptors = σ1 receptors (Cavia porcellus, UniProt Q60492)
Protocol: In these assays, the novel sigma ligands were dissolved in N,N-dimethylformamide (DMF), DMSO or ethanol, and then diluted in 50 mM Tris-HCl buffer containing 150 mM NaCl and 100 mM EDTA at pH 7.4 prior to performing the σ1 and σ2 receptor binding assays. […] The samples were harvested and filtered rapidly through a 96-well fiber glass filter plate (millipore, Billerica, Mass.) that had been presoaked with 100 μL of 50 mM Tris-HCl buffer at pH 8.0 for 1 h.
The Ki values were determine from Scatchard plots.

σ2 receptors = target: T1, σ2 receptors (Rattus norvegicus, UniProt Q5U3Y7); experiment: σ2 receptor binding assay, [^3H]DTG in the presence of (+)-pentazocine, rat liver membrane homogenates; settings: for σ1:σ2 Ratio: ratio of Ki values
T1 construct: conducted using rat liver membrane homogenates; from tissue; host or cells: rat liver membrane homogenates
T1 sequence (Q5U3Y7 1-176): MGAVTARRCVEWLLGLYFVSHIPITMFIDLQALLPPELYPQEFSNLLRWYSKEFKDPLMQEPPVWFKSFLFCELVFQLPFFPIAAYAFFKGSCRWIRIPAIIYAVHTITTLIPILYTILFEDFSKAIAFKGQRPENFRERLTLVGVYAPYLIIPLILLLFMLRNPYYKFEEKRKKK
Protocol: The incubation time was 120 min at room temperature. […] All other procedures were identical to those described for the σ1 receptor binding assay above.

Chain of σ1 receptors (Q60492 whole entry): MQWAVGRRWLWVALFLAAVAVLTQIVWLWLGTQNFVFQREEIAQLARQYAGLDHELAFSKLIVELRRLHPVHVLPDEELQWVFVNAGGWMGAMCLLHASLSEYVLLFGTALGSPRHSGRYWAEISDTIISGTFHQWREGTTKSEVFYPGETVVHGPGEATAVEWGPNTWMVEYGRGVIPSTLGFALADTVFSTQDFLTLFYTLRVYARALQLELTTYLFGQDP

Ki (σ1 receptors) | Ki (σ2 receptors) | σ1:σ2 Ratio (σ2 receptors) | SMILES
22800 nM | 102 ± 4 nM | 222 | COc1cc2c(cc1OC)CN(CCNC(=O)c1cc(C)ccc1OCCF)CC2 [compound 3a, [N-(6,7-dimethoxy-3,4-dihydro-1H-isoquinolin-2-yl)-ethyl]-2-(2-fluoro-ethoxy)-5-methyl benzamide]
1080 nM | 0.65 ± 0.22 nM | 1,656 | COc1cc2c(cc1OC)CN(CCCCNC(=O)c1cc(Br)ccc1OCCF)CC2 [compound 3d, N-[4-(6,7-dimethoxy-3,4-dihydro-1H-isoquinolin-2-yl)-butyl]-2-(2-fluoro-ethoxy)-5-bromo-benzamide]
1300 nM |  |  | COc1cc2c(cc1OC)CN(CCCCNC(=O)c1cc(I)ccc1OCCF)CC2 [compound 3e, N-[4-(6,7-dimethoxy-3,4-dihydro-1H-isoquinolin-2-yl)-butyl]-2-(2-fluoro-ethoxy)-5-iodo-benzamide]
2150 nM | 0.26 ± 0.07 nM | 8,190 | COc1cc2c(cc1OC)CN(CCCCNC(=O)c1cc(I)cc(OC)c1OCCF)CC2 [compound 3f]

Reference: patent US7659400B2, “Radiolabelled benzamide analogues, their synthesis and use in diagnostic imaging” (Washington University, priority 2003, dated 2010)
